The numbers were not newly measured in PMC6915683, “Characterization of Maltase and Sucrase Inhibitory Constituents from Rhodiola crenulata” (Foods, 2019), which cites them from elsewhere.

For data set [1], the target named is rat maltase. The arrangement: method as in PMID 28914528. Particulars: cited from earlier work.
For data set [2], the target named is rat sucrase. The arrangement: method as in PMID 28914528. Particulars: cited from earlier work.
On the set-up of data set [3]: method as in PMID 18756586. The following applies: daily consumption for three years, compared to control group not consuming acarbose; cited from earlier work.
Data set [4] has as its system sucrase. Also noted: method as in PMID 21765605. Particulars: kinetics analysis; cited from earlier work.

SMILES strings stand for the structures.

With `C[C@H]1O[C@H](O[C@H]2[C@H](O)[C@@H](O)[C@@H](O[C@H]3[C@H](O)[C@@H](O)C(O)O[C@@H]3CO)O[C@@H]2CO)[C@H](O)[C@@H](O)[C@@H]1N[C@H]1C=C(CO)[C@@H](O)[C@H](O)[C@H]1O` (stereo partly shown) [acarbose], the IC50 (usually the concentration that gives 50% inhibition) in data set [1] is 0.42 ± 0.02 µM; in data set [2], 12.3 ± 0.6 µM. For the same molecule, the “reduction of the risk of developing type 2 diabetes” value in data set [3] is 6%.

Take `C[C@@H]1O[C@@H](OC[C@H]2O[C@@H](Oc3cc4c(O)cc(O)cc4[o+]c3-c3ccc(O)c(O)c3)[C@H](O)[C@@H](O)[C@@H]2O)[C@H](O)[C@H](O)[C@H]1O` [cyanidin-3-rutinoside]: in data set [4], the “mode of inhibition of sucrase” value was “mixed-type manner”.
